Patent publication US20250269043A1, “TARGETED BIFUNCTIONAL DEGRADERS” (YALE UNIVERSITY, priority 2019, published 2025)
“And” between values parts separate entries of the source, which are not always exact repeats. Equal entries are not always repeated.

How the values were obtained:
α-DNP antibody = assay: In vivo depletion of α-DNP antibody from serum in mice (ELISA); conditions: for serum α-DNP antibody levels compared to PBS: FIG. 94; for α-DNP antibody depleted from serum 24 hours after a single dose: vehicle control 24%
Experimental: FIG. 94 illustrates that serum levels of α-DNP antibody decrease more rapidly following repeated treatment with DNP-GN3. Serum antibody levels were measured using an ELISA assay. Each experimental group contained three mice. Statistical differences in experiments involving in vivo depletion of α-DNP antibody were assessed by repeated measures two-way ANOVA with Tukey's tests for post-hoc comparison of simple effects between each of the treatment groups and PBS.
Single doses of DNP-GN3 were also found to be efficacious at mediating α-DNP antibody depletion, albeit less effectively than daily dosing (FIG. 96). […] Therefore, it was concluded that DNP-GN3 is able to mediate the depletion of a monoclonal antibody from serum, and functions across a wide range of target protein concentrations and dosing regimens.
DNP-GN3 was also found to be efficacious in depleting polyclonal α-DNP antibody from serum collected from mice immunized with DNP-keyhole limpet haemocyanin (KLH) (FIG. 97). […] Thus, the small molecule DNP-GN3 is not restricted in function to only monoclonal mouse antibodies, but is also effective at removing polyclonal α-DNP antibodies from circulation in mice.

HepG2 cells [1] = assay: Subcellular localization and degradation of α-DNP antibody endocytosed with DNP-GN3 (microscopy, western blotting); assay type: cell-based, human
Experimental: In addition, western blotting with an antibody directed to Alexa Fluor 488 was used to determine if endocytosed fluorescently labeled α-DNP antibodies are degraded in vitro. […] Signal arising from Alexa Fluor 488 in cell lysates was associated with only full-length antibody after two hours of incubation. After six hours, a lower molecular weight fluorophore-associated protein fragment between 37 and 50 kDa began to appear. An additional protein fragment with a molecular weight between 25 and 37 kDa was observed after 24 hours. […] Together with the above immunofluorescence studies showing the colocalization of α-DNP antibody-derived fluorescence with lysosomes, these studies support that α-DNP antibody degradation is mediated by lysosomal proteases. Lysosomal degradation is further consistent with a mechanism dependent on ASGPR.

HepG2 cells [2] = assay: DNP-GN3-mediated endocytosis of fluorescently labeled α-DNP antibody by adherent HepG2 cells; assay type: cell-based, human; conditions: six and twelve hours; FIG. 87A-87B
[3] = molecular target: T1, ASGPR on the surface of HepG2 cells and α-DNP antibody (Homo sapiens, UniProt P07306+P07307); assay: DNP-GN3-mediated ternary complex formation: association of fluorescently labeled α-DNP antibody with HepG2 cells in suspension; assay type: cell-based; conditions: for concentration of DNP-GN3 eliciting half-maximal fluorescence association: FIG. 86A
T1 sequence (P07306 1-291): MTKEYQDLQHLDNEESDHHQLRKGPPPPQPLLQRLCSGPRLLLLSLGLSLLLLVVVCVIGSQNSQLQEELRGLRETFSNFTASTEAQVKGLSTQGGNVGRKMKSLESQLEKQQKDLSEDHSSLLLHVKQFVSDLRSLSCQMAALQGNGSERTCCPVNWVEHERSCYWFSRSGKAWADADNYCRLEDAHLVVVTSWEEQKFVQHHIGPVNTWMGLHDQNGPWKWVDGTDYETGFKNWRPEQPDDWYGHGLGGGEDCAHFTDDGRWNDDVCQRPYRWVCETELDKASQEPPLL
T1 sequence (P07307 1-311): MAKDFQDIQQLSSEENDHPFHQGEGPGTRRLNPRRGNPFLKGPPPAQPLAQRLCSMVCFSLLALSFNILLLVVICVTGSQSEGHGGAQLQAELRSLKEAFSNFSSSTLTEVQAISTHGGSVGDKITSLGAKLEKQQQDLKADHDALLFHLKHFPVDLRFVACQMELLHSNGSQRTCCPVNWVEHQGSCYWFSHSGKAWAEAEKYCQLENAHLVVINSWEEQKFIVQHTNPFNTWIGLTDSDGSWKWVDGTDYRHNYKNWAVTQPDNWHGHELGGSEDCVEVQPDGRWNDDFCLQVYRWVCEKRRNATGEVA
Description: It was investigated whether DNP-GN3 could mediate the formation of a ternary complex between a fluorescently labeled α-DNP antibody and ASGPR on the surface of immortalized human hepatocyte HepG2 cells in suspension. […] The observed bell-shaped response to DNP-GN3 concentration is consistent with the prozone effect commonly observed in systems wherein a ternary complex is formed.

mouse MIF = molecular target: T2, mouse MIF (Mus musculus, UniProt P34884); assay: Depletion of endogenous mouse MIF in vivo; design: species or system mice; conditions: single dose of 10 mpk; FIG. 137
T2 construct: mediate the depletion of endogenous mouse MIF in vivo; from tissue; host or cells: mouse serum, in vivo
Experimental: In order to confirm that mice injected with one or ten mpk MIF-GN3 had received the injection, and that the observed stability of MIF concentrations in MIF-GN3 treated mice was not the result of injection error, 200 μg of α-DNP antibody was coinjected with the MIF protein in this experiment. […] An investigation of the ability of MIF-GN3 to mediate the depletion of endogenous mouse MIF in vivo was next undertaken. Mice were treated with either PBS or 10 mpk of MIF-GN3. […] One possible explanation for this finding is that MIF protein may be synthesized rapidly, and any increase in degradation mediated by MIF-GN3 may not be of a large enough magnitude to impact the protein's level in serum.

CC(=O)NC1C(OCCOCCOCCNC(=O)CCOCC(COCCC(=O)NCCOCCOCCOC2OC(CO)C(O)C(O)C2NC(C)=O)(COCCC(=O)NCCOCCOCCOC2OC(CO)C(O)C(O)C2NC(C)=O)NC(=O)CNC(=O)COCCOCCOCCNc2ccc([N+](=O)[O-])cc2[N+](=O)[O-])OC(CO)C(O)C1O (centres unmarked) [DNP-GN3]
serum α-DNP antibody levels compared to PBS (α-DNP antibody; 200 μg monoclonal mouse IgG2 α-DNP antibody, daily and twice-daily 1 mpk, 21 days, nude mice): significantly reduced
α-DNP antibody depleted from serum 24 hours after a single dose (α-DNP antibody; 1 mpk, FIG. 96): 52%
α-DNP antibody depleted from serum 24 hours after a single dose (α-DNP antibody; 10 mpk, FIG. 96): 34%
α-DNP antibody depletion after a single dose (α-DNP antibody; 100 mpk, FIG. 96): Significant depletion
degradation of injected anti-DNP IgG antibodies in mouse serum (α-DNP antibody; i.p. injection, FIG. 79A): can induce degradation
serum α-DNP antibody levels compared to PBS (α-DNP antibody; initial antibody dose of 500 μg, daily treatment): significant decrease
depletion of polyclonal α-DNP antibody from serum compared to PBS (α-DNP antibody; mice immunized with DNP-KLH, daily treatment, each time point, FIG. 97): significantly more polyclonal α-DNP antibody was removed
colocalization of endocytosed α-DNP antibody with lysosome membrane protein LAMP2 (HepG2 cells [1]; after 12 hours, FIG. 91B): strong colocalization
degradation of endocytosed α-DNP antibody (western blot for Alexa Fluor 488) (HepG2 cells [1]; cell lysates, 2 to 24 hours, FIG. 92A): endocytosed α-DNP antibody is degraded in HepG2 cells
intracellular fluorescence of adherent HepG2 cells (HepG2 cells [2]): dependent on the concentration of both DNP-GN3 and α-DNP antibody
concentration of maximal ternary complex formation ([3]; DNP-GN3): 20 nM and 40 nM
concentration of DNP-GN3 eliciting half-maximal fluorescence association ([3]; higher of the two half-maximal concentrations of the bell-shaped response (prozone effect)): 0.12 µM
concentration of DNP-GN3 eliciting half-maximal fluorescence association ([3]; lower of the two half-maximal concentrations of the bell-shaped response): 0.0074 µM

CC(=O)N[C@H]1[C@H](OCCOCCOCCNC(=O)CCOCC(COCCC(=O)NCCOCCOCCO[C@@H]2O[C@H](CO)[C@H](O)[C@H](O)[C@H]2NC(C)=O)(COCCC(=O)NCCOCCOCCO[C@@H]2O[C@H](CO)[C@H](O)[C@H](O)[C@H]2NC(C)=O)NC(=O)CNC(=O)CCCOc2ccc3nc(-c4cn(-c5ccc(O)c(F)c5)nn4)ccc3c2)O[C@H](CO)[C@H](O)[C@@H]1O [MIF-GN3]
mouse MIF concentrations in serum (mouse MIF): No significant decrease
